From US5594022A, “Tachykinin antagonists” (Warner-Lambert Company, priority 1994, dated 1997)
Structures can show the parent of a compound that is named as a salt. Where two headings read alike, the source gives them in different places.

Assays:
NK1 receptor [1] = biological target: T1, NK1 receptor (Cavia porcellus, UniProt P30547); assay: In vitro NK1 receptor binding ([125I] Bolton Hunter Substance-P, guinea pig cerebral cortex membranes); settings: [125I-BH]Substance-P 0.1 nM
T1 construct: guinea pig cerebral cortex membranes; from tissue; host or cells: guinea pig cerebral cortex membranes
T1 sequence (P30547 whole entry): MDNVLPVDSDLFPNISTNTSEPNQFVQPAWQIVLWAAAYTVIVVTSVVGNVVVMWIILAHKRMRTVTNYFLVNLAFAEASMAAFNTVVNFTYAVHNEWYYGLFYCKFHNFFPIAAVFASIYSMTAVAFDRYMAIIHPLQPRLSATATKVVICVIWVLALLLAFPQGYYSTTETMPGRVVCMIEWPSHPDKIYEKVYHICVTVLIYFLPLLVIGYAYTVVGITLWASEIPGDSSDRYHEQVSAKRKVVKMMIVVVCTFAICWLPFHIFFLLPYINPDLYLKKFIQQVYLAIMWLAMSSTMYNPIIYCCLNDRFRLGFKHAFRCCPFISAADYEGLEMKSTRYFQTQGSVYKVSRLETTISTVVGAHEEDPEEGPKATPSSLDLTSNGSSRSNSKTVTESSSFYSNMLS
Protocol: The compounds of the invention were also evaluated in three tachykinin binding assays.

NK1 receptor [2] = settings: literature; cited from earlier work
[3] = biological target: T2, NK1 receptor (Guinea Pig Trachea) (Cavia porcellus, UniProt P30547); assay: NK1 antagonist activity, guinea pig trachea; settings: read-out: NK1 Antagonist Activity pkB/pA2, Guinea Pig Trachea (converted)
T2 construct: Trachea; from tissue; host or cells: guinea pig trachea
T2 sequence (P30547 whole entry): as above

[4] = biological target: T3, NK1 receptor (Guinea Pig Ileum) (Cavia porcellus, UniProt P30547); assay: NK1 antagonist activity, guinea pig ileum; settings: read-out: NK1 Antagonist Activity pkB/pA2, Guinea Pig Ileum (converted)
T3 construct: Ileum; from tissue; host or cells: guinea pig ileum
T3 sequence (P30547 whole entry): as above

NK1 receptor [5] = biological target: T1, NK1 receptor; assay: Guinea pig plasma extravasation (antagonism of SPOMe-induced plasma protein extravasation in the bladder); assay type: in vivo; settings: read-out: ID50, Guinea Pig Plasma Extravasation
[6] = read-out: Binding IC50, In Vitro NK1 Receptor Binding
[7] = Binding IC50, In Vitro NK1 Receptor Binding
[8] = guinea pig bladder, IV, SPOMe-induced

| IC50 (NK1 receptor [1]; [6]) [µM] | Compound | further results |
| --- | --- | --- |
| 0.341 | CN(Cc1ccccc1)C(=O)C(Cc1c[nH]c2ccccc12)NC(=O)OCc1ccccc1 (centres unmarked) [Example 1] | – |
| – | Substance-P | NK1 receptor affinity or activity, in words (NK1 receptor [2]): highest affinity for NK1 receptors |
| 0.12 | C[C@H](NC(=O)[C@@](C)(Cc1c[nH]c2ccccc12)NC(=O)OCc1ccco1)c1ccccc1 (relative stereo) [Example 49, 2-Furanylmethyl [R,(R*,S*)]-[1-(1H-indol-3-ylmethyl) -1-methyl-2-oxo-2-[(1-phenylethyl)amino]ethyl]carbamate] | – |
| 0.168 | CN(C(=O)OCc1ccccc1)[C@@H](Cc1c[nH]c2ccccc12)C(=O)NCc1ccccc1 [Example 23] | – |
| 0.306 | C[C@@H](NC(=O)[C@H](Cc1c[nH]c2ccccc12)N(C)C(=O)OCc1ccccc1)c1ccccc1 [Example 27] | – |
| 0.306 | C[C@H](NC(=O)[C@H](Cc1c[nH]c2ccccc12)NC(=O)OCc1ccccc1)c1ccccc1 [Example 7] | – |
| 1.7 | C[C@H](NC(=O)[C@@H](Cc1ccc2ccccc2c1)NC(=O)OCc1ccccc1)c1ccccc1 [Example 58] | – |
| 0.12 | C[C@H](NC(=O)[C@@](C)(Cc1c[nH]c2ccccc12)NC(=O)OCc1cccc(F)c1)c1ccccc1 [Example 50, (3-Fluorophenyl) methyl [R-(R*,S*)]-[1-(1H-indol-3-ylmethyl)-1-methyl-2-oxo-2-[(1-phenylethyl)amino]ethyl]carbamate] | – |
| – | C[C@H](NC(=O)[C@](C)(Cc1c[nH]c2ccccc12)NC(=O)OCc1ccccc1)c1ccccc1 [Example 16] | IC50 (NK1 receptor [1]; [7]): 0.702 µM |
| 0.23 | C[C@H](NC(=O)[C@@](C)(Cc1c[nH]c2ccccc12)NC(=O)OCc1ccc(F)cc1)c1ccccc1 [Example 51, (4-Fluorophenyl) methyl [R-(R*,S*)]-[1-(1H-indol-3-ylmethyl)-1-methyl-2-oxo-2-[(1-phenylethyl)amino]ethyl]carbamate] | – |
| – | C[C@H](NC(=O)[C@@](C)(Cc1c[nH]c2ccccc12)NC(=O)OCc1ccccc1F)c1ccccc1 [Example 47, (2-Fluorophenyl) methyl [R-(R*,S*)]-[1-(1H-insol-3-ylmethyl)-1-methyl-2-oxo-[1-phenylethyl)amino]ethyl]carbamate] | Kb [3]: 0.0501 µM; Kb [4]: 0.00398 µM; ED50 (NK1 receptor [5]; guinea pig, iv): 0.13 mg/kg; IC50 (NK1 receptor [1]; [7]): 0.01 µM |
| 10 | CC(NC(=O)[C@@](C)(Cc1c[nH]c2ccccc12)NC(=O)OCc1ccccc1)c1cc(C(F)(F)F)cc(C(F)(F)F)c1 (mixture of isomers) [Example 39, Phenylmethyl (R,RS)-[2-[[1-[3,5-bis(trifluoromethyl) -phenyl]ethyl]amino]-1-(1H-indol-3-ylmethyl)-1-methyl-2-oxoethyl]carbamate] | – |
| 0.23 | C[C@H](NC(=O)[C@@](C)(Cc1c[nH]c2ccccc12)NC(=O)OCc1ccoc1)c1ccccc1 [Example 48, 3- Furanylmethyl [R-(R*,S*)]-[1-(1H-indol-3-ylmethyl) -1-methyl-2-oxo-2-[(1-phenylethyl)amino]ethyl]carbamate] | – |
| 0.29 | Cc1ccc(C(C)NC(=O)[C@@](C)(Cc2c[nH]c3ccccc23)NC(=O)OCc2ccccc2)cc1 (single isomer, unassigned) [Example 37, Phenylmethyl [1-(1H-indol-3-ylmethyl)-1-methyl-2-[[1-(4-methylphenyl)ethyl]amino]-2-oxoethyl]carbamate] | – |
| 0.21 | COc1ccc(C(C)NC(=O)[C@@](C)(Cc2c[nH]c3ccccc23)NC(=O)OCc2ccccc2)cc1 (stereo partly drawn) [Example 40, Phenylmethyl (R,RS)-[1-(1H, indole-3-ylmethyl)-2-[[1-(4-methoxyphenyl)ethyl]amino]-1-methyl-2-oxoethyl]carbamate] | – |
| 0.218 | CN(Cc1ccccc1)C(=O)[C@H](Cc1c[nH]c2ccccc12)NC(=O)OCc1ccccc1 [Example 3] | – |
| 3.4 | CC(NC(=O)C(Cc1cn(C)c2ccccc12)NC(=O)OCc1ccccc1)c1ccccc1 (centres unmarked) [Example 57, Phenylmethyl [1-(1-methyl-1H-indol-3-ylmethyl]-2-pxp-2-[(1-phenylethyl)amino]ethyl]carbamate] | – |
| 0.075 | C[C@H](NC(=O)[C@@H](Cc1c[nH]c2ccccc12)NC(=O)OCc1ccccc1)c1ccccc1 [Example 6] | – |
| > 1 | C[C@H](NC(=O)C(C)(Cc1csc2ccccc12)NC(=O)OCc1ccccc1)c1ccccc1 (some centres unmarked) [Example 60, Phenylmethyl [1-(benzo[b]thien-3-ylmethyl)-1-methyl-2-oxo-2-[(1-phenylethyl)amino]ethyl]carbamate] | – |

| IC50 (NK1 receptor [1]; [6]) [µM] | Compound | further results |
| --- | --- | --- |
| 0.049 | C[C@H](NC(=O)[C@@](C)(Cc1c[nH]c2ccccc12)NC(=O)OCc1cccc(F)c1F)c1ccccc1 [Example 52, (2,3-Difluorophenyl) methyl [R-(R*,S*)]-[(1H-indol-3-methyl)-1-methyl-2-oxo-[(1-phenylethyl)amino]ethyl]carbamate] | – |
| 0.07 | Cc1ccc(C(C)NC(=O)[C@@](C)(Cc2c[nH]c3ccccc23)NC(=O)OCc2ccccc2)cc1 (single isomer, unassigned) [Example 36, Phenylmethyl [1-(1H-indol-3-ylmethyl)-1-methyl-2-[[1-(4-methylphenyl)ethyl]amino]-2-oxoethyl]carbamate] | – |
| – | CN(Cc1ccccc1)C(=O)[C@H](Cc1c[nH]c2ccccc12)NC(=O)OCc1cc2ccccc2o1 [Example 67, Carbamic acid, [1-(1H-indol-3-ylmethyl)-2-[methyl (phenylmethyl)amino]-2-oxoethyl]-, 2-benzofuranylmethyl ester, (S)--] | Kb [4]: 0.0126 µM; ED50 (NK1 receptor [5]; [8]): 0.91 mg/kg |
| > 10 | C[C@H](NC(=O)[C@@](C)(Cc1c[nH]c2ccccc12)NC(=O)OCc1ccncc1)c1ccccc1 [Example 41] | – |
| 0.1 | CC(NC(=O)C(C)(Cc1c[nH]c2ccccc12)NC(=O)OCc1ccccc1)C1CCCCC1 (stereo not drawn) [Example 38, Phenylmethyl [R-(R*,R*)]-(2-[(1-cyclohexyethyl)amino]-1-(1H-indol-3-ylmethyl)-1-methyl-2-oxoethyl]carbamate] | – |
| 0.185 | C[C@H](NC(=O)[C@H](Cc1c[nH]c2ccccc12)N(C)C(=O)OCc1ccccc1)c1ccccc1 [Example 24] | – |
| 0.233 | O=C(N[C@@H](Cc1c[nH]c2ccccc12)C(=O)OCc1cc(C(F)(F)F)cc(C(F)(F)F)c1)OCc1ccccc1 [Example 35, Methyl N-[(phenylmethoxy)carbonyl]-, [3,5-bis(trifluoromethyl)phenyl]-L-tryptophan] | – |
| 0.11 | C[C@H](NC(=O)[C@@](C)(Cc1c[nH]c2ccccc12)NC(=O)OC1CCc2ccccc21)c1ccccc1 (stereo partly drawn) [Example 44, 2,3-Dihydro-1H-inden-3-yl [R-(R*,S*)]-[1(1H-indol-3-ylmethyl)-1-methyl-2-oxo-2-[(phenylethyl)amino]ethyl]carbamate] | – |
| 0.487 | CN(C(=O)OCc1ccc(Cl)cc1)[C@@H](Cc1c[nH]c2ccccc12)C(=O)NCc1ccccc1 [Example 29] | – |
| > 1 | C[C@H](NC(=O)C(Cc1n[nH]c2ccccc12)NC(=O)OCc1ccccc1)c1ccccc1 (stereo partly drawn) [Example 55, Phenylmethyl [R-(R*,S*)]and [S-(R*,R*)]-[1-(1H -indazol-3-ylmethyl-)-2-oxo-2-[(1-phenylethyl)amino]ethyl]carbamate] | – |
| 0.11 | C[C@H](NC(=O)[C@@](C)(Cc1c[nH]c2ccccc12)NC(=O)OC1Cc2ccccc2C1)c1ccccc1 [Example 46, 2,3-Dihydro-1H-inden-2-yl [1-(1H-indol-3-ylmethyl) -1-methyl-2-oxo-2-[(1-phenylethyl)amino]ethyl]carbamate] | – |
| 0.14 | C[C@H](NC(=O)[C@@](C)(Cc1c[nH]c2ccccc12)NC(=O)OCc1ccsc1)c1ccccc1 [Example 42, 3-Thienylmethyl [R-(R*,S*)]-[(1H-indol-3-ylmethyl) -1-methyl-2-oxo-2-[(1-phenylethyl)amino]ethyl]carbamate] | – |
| – | Cc1ccc(COC(=O)N[C@](C)(Cc2c[nH]c3ccccc23)C(=O)N[C@@H](C)c2ccccc2)cc1 [Example 22] | Kb [3]: 0.1 µM; Kb [4]: 0.0158 µM; ED50 (NK1 receptor [5]; guinea pig, iv): 0.64 mg/kg; IC50 (NK1 receptor [1]; [7]): 0.017 µM |
| 0.198 | CC(NC(=O)C(Cc1c[nH]c2ccccc12)NC(=O)OCc1ccccc1)c1ccccc1 (centres unmarked) [Example 4] | – |
| 0.1 | C[C@H](NC(=O)[C@@](C)(Cc1c[nH]c2ccccc12)NC(=O)OCc1cccs1)c1ccccc1 [Example 43, 2-Thienylmethyl [R-(R*,S*)]-[1-(1H-indol-3-ylmethyl) -1-methyl-2-oxo-[(1-phenylethyl)amino]ethyl]carbamate] | – |
| 3.2 | C[C@H](NC(=O)C(Cc1c[nH]c2ccc(F)cc12)NC(=O)OCc1ccccc1)c1ccccc1 (stereo partly drawn) [Example 56, Phenylmethyl [R-(R*,S*)]and [S-(R*,R*)]-[1-[(5-fluoro-1H-indol-3-yl)methyl]-2-oxo-2-[(1-phenylethyl)amino]ethyl]carbamate] | – |
| – | C[C@H](NC(=O)[C@@](C)(Cc1c[nH]c2ccccc12)NC(=O)OCc1cc2ccccc2o1)c1ccncc1 [Example 66, Carbamic acid, [1-(1H-indol-3-ylmethyl)-1-methyl-2-oxo-2-[[1-(4-pyridinyl)ethyl]amino]ethyl]-, 2-benzofuranylmethyl ester, monohydrochloride, [R-(R*,S*)]] | ED50 (NK1 receptor [5]; [8]): 2.8 mg/kg |
| – | C[C@H](NC(=O)[C@@](C)(Cc1c[nH]c2ccccc12)NC(=O)OCc1ccc(F)cc1F)c1ccccc1 [Example 53, (2,4-Difluorophenyl) methyl [R-(R*,S*)]-[1-(1H-indol-3-ylmethyl)-1-methyl-2-oxo-2-[(1-phenylethyl)amino]ethyl]carbamate] | Kb [3]: 0.00794 µM; Kb [4]: 0.00251 µM; ED50 (NK1 receptor [5]; guinea pig, iv): 0.071 mg/kg; IC50 (NK1 receptor [1]; [7]): 0.039 µM |
